Values quoted from earlier work, collected in paper PMC6006448 (ACS Chemical Biology, 2018).

Test system: Rac1 and Cdc42

## COc1ccc2cc([C@@H](C)C(=O)O)ccc2c1 [R-naproxen]
  action on Rac1 and Cdc42 in a cellular setting: inhibitor
